According to patent US20200037609A1, “HERBICIDAL COMPOSITIONS AND METHODS OF USE THEREOF” (The Regents of the University of California, priority 2017, published 2020):
Entries after “also recorded” stand apart in the source; their conditions may differ.

Key:
Streptomyces sp. Mg1 = test: Streptomyces growth inhibition assay; format: cell-based; conditions: 250 μM aspterric acid
Method: Streptomyces sp. Mg1 was plated onto MS media either with or without 250 μM aspterric acid. Plates were incubated at 28° C.

Arabidopsis thaliana = test: Agar-based plant growth inhibition assay on MS media; format: in vivo; conditions: for growth of A. thaliana on MS media: 50 μM aspterric acid
Method: Agar-based growth inhibition assays were carried out on MS media (4.33 g Murashige and Skoog basal medium, 20 g sucrose, and 10 g Agar per liter MS media, pH was adjusted to 5.7 using KOH). Aspterric acid at a final concentration of 50 μM was included in the experimental media. DMSO at final concentration of 1% was used to increase the solubility of aspterric acid. The control MS media contained the same amount of DMSO, but no aspterric acid. Sterilized Arabidopsis thaliana seeds were plated on MS media. After 2 days of cold treatment at 4° C. in the dark, plates were transferred to standard growing condition (16 hour light and 8 hour dark at 22° C.) to geminate. After germination on day 4, the seedlings were transferred to MS media containing 50 μM aspterric acid. MS media containing only DMSO was used as a control. Images were taken at day 8 and day 12 to assay growth inhibition activity of aspterric acid on Arabidopsis thaliana.
(§1) Growth inhibition assay of plants on plates or in the tubes. MS (2.16 g/L Murashige and Skoog basal medium, 8 g/L sucrose, 8 g/L agar) media was used to test the growth inhibition of AA on A. thaliana, Solanum lycopersicum, and Zea mays. A. thaliana, S. lycopersicum, G. max and Z. mays were grown under long day condition (16/8 h light/dark) using cool-white fluorescence bulbs as the light resource at 23° C. AA was dissolved in ethanol and added to the media before inoculating strains or growing plants. The media of control treatment contains the same amount of ethanol, but without AA.

green bean seedlings = test: as above; format: in vivo; conditions: 50 μM aspterric acid, day 3 and day 7
Method: Sterile green bean seedlings were plated on MS media containing 50 μM aspterric acid and 1% DMSO (to increase the solubility of aspterric acid) on day 0. MS media containing only 1% DMSO was used as a control. Growth was assessed on day 3 and day 7.

Zea mays = test: Plant growth inhibition assay on MS media; format: in vivo; conditions: 50 μM AA
Method: as §1

[1] = test system: glufosinate resistant A. thaliana; test: Plant growth inhibition assay by spraying (250 μM AA in Finale + ethanol); format: in vivo, Arabidopsis thaliana; conditions: glufosinate resistant plants without astD, listed as AA
Method: Plant growth inhibition assay by spraying. AA was firstly dissolved in ethanol and then added to solvent (0.06 g/L Finale® Bayer Inc.+20 g/L EtOH). The control plants were treated with solvent containing ethanol only. A. thaliana that are resistant to glufosinate (containing the bar gene) were grown under long day conditions (16/8 h light/dark) using cool-white fluorescence bulbs as the light resource at 23° C. Spraying treatments began when the seeds germinated, and was repeated once every two days with approximately 0.4 mL AA solution per time per pot.

[2] = test system: Arabidopsis thaliana Col-0 flowers; test: Cross experiment, AA as chemical hybridization agent; format: in vivo; conditions: 250 μM AA; for offspring obtained: listed as AA
Method: Flowers of Arabidopsis thaliana Col-0 plants were treated with aspterric acid. The treated flowers that were missing all six fertile stamens were selected as the female parent in a cross with a male parent of known genetic identity. Non-treated Arabidopsis plants containing a BASTA resistant gene were used as male parent to donate pollen to the plants where the flowers were missing all six fertile stamens. 2-week old F1 progeny resulting from the cross were treated with Finale (11.3% Glufosinate-ammonium) at a 1:2000 dilution.
To make male sterile A. thaliana, AA was added to chemical hybridization agent (CHA) formulation (250 μM AA, 2% ethanol, 0.1% Tween-80, 1% corn oil in water), which has less inhibition effect on the growth of A. thaliana. Flowers of the AA treated Col-0 were selected as the female parent. […] 2-week old F1 progeny resulting from the cross were treated by Finale (11.3% glufosinate-ammonium) at 1:2000 dilution.

[3] = test system: pollen development in Arabidopsis thaliana; test: Pollen development in AA treated plants; format: in vivo; conditions: treated before flowering; listed as AA
[4] = female AA treated wild type x male un-treated glufosinate resistant plant

CC(C)=C1CC[C@]23CO[C@H](C2)[C@@](O)(C(=O)O)CC[C@@H]13 [aspterric acid]
growth of Streptomyces on MS media (Streptomyces sp. Mg1): inhibited the growth | growth of A. thaliana on MS media (Arabidopsis thaliana): significant vegetative growth inhibition | growth of A. thaliana on MS media (Arabidopsis thaliana; listed as AA): potently inhibit | growth of wild-type A. thaliana on media (Arabidopsis thaliana; 100 μM AA): strongly inhibited | growth of green bean seedlings on MS media (green bean seedlings): significant vegetative growth inhibition | root development and plant growth of Zea mays on MS media (Zea mays): effective inhibitor of root development and plant growth | plant growth after spray of AA in Finale [1]: severely inhibited plant growth; also recorded: strong growth inhibitory phenotype | offspring obtained ([2]; female AA treated wild type x male AA treated glufosinate resistant plant): No offspring was obtained and No | inherit resistance [2, 4]: Yes | offspring obtained [2, 4]: Offspring was obtained and Yes | pollen formation in AA treated A. thaliana [3]: failed to form normal pollen; also recorded: depleted of healthy and mature pollen
